Test results published in patent publication US20110318270A1, “DRUG IDENTIFICATION PROTOCOL FOR TYPE 2 DIABETES BASED ON GENE EXPRESSION SIGNATURES” (VERVA PHARMACEUTICALS LTD, priority 2009, published 2011).

How the values were obtained:
[1] = system: Diet-induced obese (DIO) mice; test: Insulin sensitising effects of CAIs in diet-induced obese mice; type: in vivo; details: for reduction in the incremental area under the glucose curve (AUC) compared with vehicle-treated animals / glucose disposal: 50 mg/kg/day for 14 days, intraperitoneal glucose tolerance test
Experimental: Diet-induced obese (DIO) mice were treated with each CAI at 50 mg/kg/day for 14 days.

[2] = system: Diet-induced obese (DIO) mice; test: as above; type: in vivo; details: for effect on glucose tolerance: 20-100 mg/kg/day for 14 days
[3] = system: TNFα-treated 3T3-L1 adipocytes; test: TNFα-based GES small molecule library screen (MassARRAY, Zrcc score); type: cell-based; set-up: key: Zrcc: Z-score normalized for sample variation and gene contribution; details: 10 μM compound in final 24 h of 72 h TNFα (n=2); TTA n=29, TNF n=57
Experimental: In order to identify new insulin sensitizing agents, a small molecule library consisting of 1120 high-purity, off-patent chemical compounds was screened using the GES. First, 3T3 […] adipocytes were cultured in fourteen 96-well plates and incubated with 3 ng/ml TNFα for 72 h prior to the addition of 10 μM of each compound in the last 24 h of TNFα treatment. Four vehicle control, four TNFα and two TNFα plus ASA- and TGZ-treated wells serving as controls were included per 96-well plate. The aim of the screen was to identify compounds that caused the expression of the 7 gene GES to most closely resemble the expression levels observed in the insulin re-sensitized cells as this is likely to indicate that these cells have restored insulin sensitivity. Following RNA extraction and cDNA synthesis, gene expression analysis of the 7 gene GES was performed using the MassARRAY (Sequenom, San Diego, Calif.) [Cullinan and Cantor Pharmacogenomics 9:1211-1215, 2008]. Data are represented as a Z-score residual coefficient correlation (Zrcc); a Z-score that is normalised for sample to sample variation and for the relative contribution that each gene makes to the predictive power of the GES. Compounds were ranked based on their Zrcc score highest to lowest, and as an initial proof of concept validation test, the top ranked 30 compounds and 23 randomly chosen, mid-ranked compounds were subjected to 2-DOG uptake assays to determine their potential insulin sensitising effects. 3T3 […] adipocytes were incubated with 25 μM of each compound prior to performing 2-DOG uptake assays in the presence or absence of submaximal amounts of insulin (0.5 nM for 15 min).
The GES-ranked compounds were next broadly grouped into classes based on known mechanism of action or common structural features and re-represented as the mean Zrcc. Only compound classes with 10 or more members were considered further. As a result, the class of treatments that scored the highest, thus representing the most insulin sensitive cells, were the vehicle-treated cells with an average Zrcc score of 1.76±0.37; (p<0.0001 to TNFα treatment and p<0.002 to TNFαplus ASA and TGZ co-treatments).
In a CD63-only screen, TTA results with a negative score and TNF with a positive (p=0.02). Serving as internal controls in the screen, 3T3-L1 adipocytes were either treated with vehicle (0.2% w/v DMSO) for 72 h (n=55), 3 ng/ml TNFα for 72 h (TNF (n=57) or 3 ng/ml TNFα for 72 h plus 10 μM TGZ and 5 mM ASA in the final 24 h of the TNFα incubation (TTA) (n=29). The gene expression analysis of the GES was performed using the Mass ARRAY system (Cullinan and Cantor, 2008 supra). Data are calculated as a Z-score of the residual component following adjustment for total expression levels and incorporating the correlation coefficients derived from the Bayesian prediction model (Zrcc). The resulting metric is a Z-score that was normalized for sample to sample variation and for the relative contribution that each gene makes to the predictive power of the GES. Data are represented as mea Zrcc values±SEM (with p values compared with TNF-treated sample). The statistical analyses were performed using Student's t-Test assuming 2-tailed distribution and 2-sample equal variance.
In this assay, 3T3-L1 adipocytes were incubated with TNFα for 72 h followed by the addition of 10 μM of each compound in the final 24 h of the TNFα treatment (n=2). Compounds include VVP808, published insulin sensitizers furazolidone (FUR) (monoamine oxidase inhibitor), mesalamine (MES) and fosfosal (FOS) (NSAIDs), and estradiol-17-beta (EST), and known insulin resistance-inducing compounds such as ajmaline (AJM) (glucose uptake inhibitor) and corticosterone (COR) (glucocorticoid). Serving as internal controls in the screen, 3T3-L1 adipocytes were either treated with vehicle (0.2% DMSO) for 72 h (n=55), 3 ng/ml TNFα for 72 h) TNF) (n=57) or 3 ng/ml TNFα for 72 h plus 10 μM TGZ and […] ASA in the final 24 h of the TNFα incubation (TTA) (n=29). […]

3T3-L1 adipocytes [4] = test: Reversal of TNFα-induced insulin resistance, 2-deoxyglucose (2-DOG) uptake; type: cell-based
Experimental: Initially, a model of TNFα-induced insulin resistance in 3T3-L1 adipocytes was established as described previously (Sartipy and Loskutoff J Biol Chem 278:52298-52306, 2003). Following exposure of 3T3-L1 adipocytes to 3 ng/ml TNFα for 72 h, insulin resistance was determined by the ability of the cells to take up 2-deoxyglucose (2-DOG) in response to insulin. TNFα caused a 37% decrease in 2-DOG uptake compared with insulin-stimulated vehicle-treated cells (p<0.0001) (Table 1).
3T3-L1 adipocytes were either treated with vehicle—(Veh), 3 ng/ml TNFα-(TNF) or 3 ng/ml TNFα plus 10 μM TGZ and 5 mM ASA (TTA) as detailed above. Cells were then treated with insulin (0 or 10 nM) for 30 min followed by measurement of 2-deoxyglucose (2-DOG) uptake over the final 10 min of insulin stimulation. Data are presented as % change in 2-DOG uptake compared with vehicle-treated, insulin-stimulated cells and represent mean values±SEM of >3 independent experiments and each data point was assayed in triplicate. […] The amount of 2-DOG transported in vehicle-treated adipocytes was 20.5±3.4 pmol/min/well. Statistical analyses were performed using Student's t-Test assuming 2-tailed distribution and 2-sample equal variance.

3T3-L1 adipocytes [5] = test: HA-tagged GLUT4 translocation to the plasma membrane; type: cell-based; details: 10 μM for 20 h (ASA 5 mM), then 0.5 nM insulin
Experimental: FIGS. 2a and 2b are graphical representations of a compound stimulation of HA-tagged GLUT4 translocation to the plasma membrane in 3T3-L1 adipocytes. Adipocytes were incubated with 10 μM of each compound for 20 h prior to acute stimulation with 0.5 nM of insulin and measurement of HA-tagged GLUT4 translocation to the plasma membrane. a. The effect of the compound classes closest to TNFα plus ASA and TGZ co-incubated samples GES profile (see FIG. 1) on HA-tagged GLUT4 movement. Data are presented as fold change compared with 0.5 nM insulin alone set at 1.0 and represent mean values±SEM; n=12-40 per class. b. Individual CAI members effect on GLUT4 movement. […]
A secondary screen was next undertaken to test the 8 drug classes ranked most similar to the insulin re-sensitised TNFαplus ASA and TGZ co-treated samples to determine their ability to affect exogenous HA-tagged GLUT4 translocation to the plasma membrane in the presence of submaximal 0.5 nM insulin (Govers et al. Mol Cell Biol 24:6456-6466, 2004). Members from the sodium channel blockers, beta lactams, GABA antagonists, sulfamide antifolates, lipoxygenase inhibitors, dopamine antagonists, carbonic anhydrase inhibitors (CAIs) and antibiotics were incubated at 10 μM doses for 20 h and the overall effect of each class member was assessed and averaged.

db/db mice = details: for change in blood glucose levels compared with vehicle-treated animals: 300 mg/kg metformin or 20 mg/kg MTZ for 8 d
Experimental: Mice treated with MTZ (50 mg/kg/d) for 14 d were placed into metabolic cages for 24 h.

| Compound | reduction in the incremental area under the glucose curve (AUC) compared with vehicle-treated animals / glucose disposal [1] | Mean Zrcc_GES ± SEM, CLU single gene [3] | Mean Zrcc_GES ± SEM, CS single gene [3] | Mean Zrcc_GES ± SEM, STEAP4 single gene [3] | other results |
| --- | --- | --- | --- | --- | --- |
| Nc1ccccc1S(N)(=O)=O [2ABS, 2-aminobenzene sulphonamide] | did not affect glucose disposal |  |  |  | effect on glucose tolerance [2]: no significant effect |
| CC[C@H]1[C@@H]2C[C@H]3[C@@H]4N(C)c5ccccc5[C@]45C[C@@H]([C@H]2[C@H]5O)N3[C@@H]1O [AJM, ajmaline] |  | −0.2 | −0.5 | 0.6 |  |
| CC(=O)Oc1ccccc1C(=O)O [ASA, aspirin] |  |  |  |  | reversal of TNFα impairment of insulin-stimulated 2-DOG uptake (3T3-L1 adipocytes [4]; 5 mM ASA and/or 10 μM TGZ in final 24 h of 72 h TNFα treatment): fully reversed TNFα effects; HA-GLUT4 translocation above submaximal insulin (3T3-L1 adipocytes [5]): increased |
| C[C@]12C[C@H](O)[C@H]3[C@@H](CCC4=CC(=O)CC[C@@]43C)[C@@H]1CC[C@@H]2C(=O)CO [COR, corticosterone] |  | 0.5 | −0.5 | −0.2 |  |
| NS(=O)(=O)c1cc(C2(O)NC(=O)c3ccccc32)ccc1Cl (stereo not shown) [CTD, chlorthalidone] | did not affect glucose disposal |  |  |  | effect on glucose tolerance [2]: no significant effect |
| NS(=O)(=O)c1cc(Cl)c(Cl)c(S(N)(=O)=O)c1 [DCP, dichlorphenamide] | did not affect glucose disposal |  |  |  | effect on glucose tolerance [2]: no significant effect |
| O=C(O)c1ccccc1OP(=O)(O)O [FOS, fosfosal] |  | 0.6 | −0.05 | 0.3 |  |
| O=C1OCCN1/N=C/c1ccc([N+](=O)[O-])o1 [FUR, furazolidone] |  | 0.4 | −0.2 | 0.7 |  |
| Nc1ccc(O)c(C(=O)O)c1 [MES, mesalamine] |  | −0.9 | 3.1 | −0.4 |  |
| CNS(=O)(=O)c1nn(C)c(=NC(C)=O)s1 [MMTZ, N-methyl-methazolamide] | not observed |  |  |  |  |
| CC(=O)/N=c1/sc(S(N)(=O)=O)nn1C [MTZ, methazolamide] | 27% |  |  |  | body weight, food and water intake or epididymal fat mass compared with vehicle-treated mice [1]: without significant changes; 24 h urine output and creatine excretion ([1]; vs vehicle-treated): not significantly altered; time of administration after which the fasting glucose effect peaked (db/db mice; db/db mice): 7 days; time of administration after which the fasting glucose effect was seen (db/db mice; db/db mice): 3 days; lower HbA1c levels (db/db mice; db/db mice, 50 mg/kg for 28 days, vs vehicle): up to 23%; reduction of glucose urine concentration compared with vehicle-treated mice (db/db mice; db/db mice, 50 mg/kg/d for 14 d, metabolic cages 24 h): 18%; change in blood glucose levels compared with vehicle-treated animals (db/db mice; db/db mice): significantly lower change; fasting glucose levels (db/db mice; db/db mice, 20 or 50 mg/kg/d for 14 days): dose-dependent decrease; body weight, food or water intake (db/db mice; mouse, in vivo, 20 mg/kg): No change; decrease in food intake (db/db mice; mouse, in vivo, 50 mg/kg): 27%; food intake (db/db mice; mouse, in vivo, 50 mg/kg): 4.8 ± 0.5 g/day; change in fasting blood glucose after the treatment period (db/db mice; pair-fed db/db mice, 8 days, n=6/group): -6.2 ± 1.5 mM; plasma insulin levels ([2]; 14 days, dose range): dose-dependent decrease; circulating glucose levels compared with vehicle-treated mice ([2]; concentrations above 20 mg/kg, 14 days): significant reduction |
| CC(=O)/N=c1/sc(S(N)(=O)=O)nn1C [compound 808] |  | −0.4 | 0.2 | 0.5 |  |
| NS(=O)(=O)c1cc(C(=O)O)c(NCc2ccco2)cc1Cl [furosemide] |  |  |  |  | effect on glucose tolerance [2]: no significant effect |
| CN(C)C(=N)N=C(N)N [metformin] |  |  |  |  | change in blood glucose levels compared with vehicle-treated animals (db/db mice; db/db mice): significantly lower change |
| Acute Insulin: insulin, 10 nM for 30 min |  |  |  |  | 2-DOG Uptake (% of insulin-stimulated alone) (3T3-L1 adipocytes [4]; insulin 10 nM 30 min, TNFα 3 ng/ml 72 h, 10 μM TGZ & 5 mM ASA final 24 h, mean ± SEM): 100.0 ± 9.7%; fold increase in 2-DOG uptake above basal level (3T3-L1 adipocytes [4]; vehicle-treated, insulin-stimulated adipocytes (10 nM, 30 min)): 6.6±0.6 fold |
| estradiol-17-beta |  | 0.5 | 0.04 | 0.3 |  |
